The text below walks through data of patent US20260028365A1 (BIOGEN MA INC., priority 2022, published 2026).

Read-outs that look alike come from different tables or passages of the source.

The IC50 is the concentration that inhibits the measured activity by half.

The target in one assay is JH2 domain of human Tyk2 (Homo sapiens (Human), UniProt P29597). The assay can be described thus: JH2 Biochemical Assay (TR-FRET probe displacement). Format: binding.
A further assay addresses Tyk2 (Homo sapiens (Human), UniProt P29597). The assay can be described thus: pSTAT4 Cell Assay (MSD, NK92 cells). Format: cell-based.
The mark [1] stands for this setting: JH2 domain of human Tyk2, TR-FRET probe displacement.
Setting [2] is: TR-FRET probe displacement, JH2 domain of human Tyk2.
Setting [3] is: TR-FRET probe displacement, JH2 domain.

Chain of JH2 domain of human Tyk2 (P29597 575-876): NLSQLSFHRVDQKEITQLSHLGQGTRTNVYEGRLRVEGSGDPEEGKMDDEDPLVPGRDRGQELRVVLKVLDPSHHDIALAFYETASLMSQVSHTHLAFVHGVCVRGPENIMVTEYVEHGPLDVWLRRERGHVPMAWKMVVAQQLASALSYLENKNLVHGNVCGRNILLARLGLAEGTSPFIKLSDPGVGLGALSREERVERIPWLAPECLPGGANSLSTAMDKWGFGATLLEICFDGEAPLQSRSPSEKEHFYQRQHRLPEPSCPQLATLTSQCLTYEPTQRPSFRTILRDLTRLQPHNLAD
Chain of Tyk2 (P29597 whole entry, the tested form may be a part): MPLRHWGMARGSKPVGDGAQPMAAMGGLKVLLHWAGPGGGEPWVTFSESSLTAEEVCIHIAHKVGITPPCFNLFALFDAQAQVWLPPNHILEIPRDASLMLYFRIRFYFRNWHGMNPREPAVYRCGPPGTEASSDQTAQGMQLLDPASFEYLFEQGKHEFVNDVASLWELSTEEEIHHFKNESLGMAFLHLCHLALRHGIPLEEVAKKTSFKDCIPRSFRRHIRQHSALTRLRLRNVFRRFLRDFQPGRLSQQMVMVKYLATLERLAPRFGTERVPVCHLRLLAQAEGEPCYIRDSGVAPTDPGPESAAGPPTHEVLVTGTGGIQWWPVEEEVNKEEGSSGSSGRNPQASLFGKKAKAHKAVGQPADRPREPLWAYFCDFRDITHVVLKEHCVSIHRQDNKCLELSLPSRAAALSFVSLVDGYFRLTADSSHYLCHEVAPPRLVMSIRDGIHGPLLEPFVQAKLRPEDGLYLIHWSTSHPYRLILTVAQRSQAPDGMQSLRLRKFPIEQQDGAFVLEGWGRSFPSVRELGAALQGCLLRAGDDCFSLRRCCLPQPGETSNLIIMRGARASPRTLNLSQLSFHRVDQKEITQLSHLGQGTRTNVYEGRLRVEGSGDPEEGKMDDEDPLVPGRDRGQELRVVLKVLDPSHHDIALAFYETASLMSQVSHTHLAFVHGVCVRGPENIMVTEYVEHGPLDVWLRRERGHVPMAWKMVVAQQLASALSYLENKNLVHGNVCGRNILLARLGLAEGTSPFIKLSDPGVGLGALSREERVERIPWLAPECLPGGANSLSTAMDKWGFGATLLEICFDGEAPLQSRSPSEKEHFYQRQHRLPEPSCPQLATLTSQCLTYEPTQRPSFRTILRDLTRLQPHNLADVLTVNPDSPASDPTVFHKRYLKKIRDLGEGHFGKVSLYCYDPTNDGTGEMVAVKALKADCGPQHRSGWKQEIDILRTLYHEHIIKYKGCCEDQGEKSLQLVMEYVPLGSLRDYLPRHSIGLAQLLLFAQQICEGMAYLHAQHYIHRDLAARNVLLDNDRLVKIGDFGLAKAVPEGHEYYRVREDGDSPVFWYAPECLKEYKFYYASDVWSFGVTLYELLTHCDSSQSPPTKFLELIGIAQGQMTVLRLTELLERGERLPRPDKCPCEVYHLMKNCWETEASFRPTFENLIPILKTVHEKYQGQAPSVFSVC

`CC(=O)Nc1cc(Nc2cc(C)nc(C(C)(F)F)n2)c(-c2cc(CN(C)C)ccn2)cn1` [Example 740, N-(4′-((2-(1,1-difluoroethyl)-6-methylpyrimidin-4-yl)amino)-4-((dimethylamino)methyl)-[2,3′-bipyridin]-6′-yl)acetamide]: the IC50 at JH2 domain of human Tyk2 (setting [1]) and at Tyk2 (MSD) was not above 10 nM throughout.

For the molecule `CC(=O)Nc1cc(Nc2cc(C)nc(C(C)(F)F)n2)c(OCc2ccc(F)c(F)c2)cn1` [Example 467, N-(5-((3,4-difluorobenzyl)oxy)-4-((2-(1,1-difluoroethyl)-6-methylpyrimidin-4-yl)amino)pyridin-2-yl)acetamide], the IC50 at JH2 domain of human Tyk2 (setting [1]) was not above 10 nM; against Tyk2 (MSD), 10 to 100 nM.

Turning to `CC(=O)Nc1cc(Nc2cc(C)nc(C(C)(F)F)n2)c(-c2cccnn2)cn1` [Example 251, N-(4-((2-(1,1-difluoroethyl)-6-methylpyrimidin-4-yl)amino)-5-(pyridazin-3-yl)pyridin-2-yl)acetamide], the IC50 at JH2 domain of human Tyk2 (setting [2]) and against Tyk2 (MSD) was not above 10 nM in each case.

`CCOc1cnc(NC(C)=O)cc1Nc1cc(-c2cncc(C)c2)nc(C(C)(F)F)n1` [Example 367, N-(4-((2-(1,1-difluoroethyl)-6-(5-methylpyridin-3-yl)pyrimidin-4-yl)amino)-5-ethoxypyridin-2-yl)acetamide]: the IC50 at JH2 domain of human Tyk2 (setting [2]) was not above 10 nM; on Tyk2 (MSD) it was 10 to 100 nM.

Turning to `CC(=O)Nc1cc(Nc2cc(C)nc(C(C)(F)F)n2)c(-c2cn3c(n2)CCC3)cn1` [Example 769, N-(4-((2-(1,1-difluoroethyl)-6-methylpyrimidin-4-yl)amino)-5-(6,7-dihydrO5H-pyrrolo[1,2-a]imidazol-2-yl)pyridin-2-yl)acetamide], the IC50 on JH2 domain of human Tyk2 (setting [3]) and against Tyk2 was not above 10 nM in each case.

`CC(=O)Nc1cc(Nc2cc(C)nc(C(C)(F)F)n2)c(-c2ncc(CN3CCCC3)s2)cn1` [Example 738, N-(4-((2-(1,1-difluoroethyl)-6-methylpyrimidin-4-yl)amino)-5-(5-(pyrrolidin-1-ylmethyl)thiazol-2-yl)pyridin-2-yl)acetamide]: the IC50 on JH2 domain of human Tyk2 (setting [1]) and on Tyk2 (MSD) was not above 10 nM each time.

Regarding `COc1cc(COc2cnc(NC(C)=O)cc2Nc2cc(C)nc(C(C)(F)F)n2)on1` [Example 322, N-(4-((2-(1,1-difluoroethyl)-6-methylpyrimidin-4-yl)amino)-5-((3-methoxyisoxazol-5-yl)methoxy)pyridin-2-yl)acetamide], the values for the IC50 at JH2 domain of human Tyk2 (setting [2]) and on Tyk2 (MSD) were not above 10 nM and 10 to 100 nM, respectively.

Turning to `CCOc1cnc(NC(C)=O)cc1Nc1cc(-c2ccc(OC)nc2)nc(C(C)(F)F)n1` [Example 369, N-(4-((2-(1,1-difluoroethyl)-6-(6-methoxypyridin-3-yl)pyrimidin-4-yl)amino)-5-ethoxypyridin-2-yl)acetamide], the IC50 on JH2 domain of human Tyk2 (setting [2]) is not above 10 nM; on Tyk2 (MSD) it was 10 to 100 nM.

Turning to `CC(=O)Nc1cc(Nc2cncc(C(C)(F)F)n2)c(-c2ncc(F)cn2)cn1` [Example 188, N-(4-((6-(1,1-difluoroethyl)pyrazin-2-yl)amino)-5-(5-fluoropyrimidin-2-yl)pyridin-2-yl)acetamide], the IC50 at JH2 domain of human Tyk2 (setting [2]) is not above 10 nM; at Tyk2 (MSD), 10 to 100 nM.

For the molecule `CC(=O)Nc1cc(Nc2cc(C)nc(C(C)(F)F)n2)c(-c2cc(CN3CCCC3)n(C)n2)cn1` [Example 803, N-(4-((2-(1,1-difluoroethyl)-6-methylpyrimidin-4-yl)amino)-5-(1-methyl-5-(pyrrolidin-1-ylmethyl)-1H-pyrazol-3-yl)pyridin-2-yl)acetamide], the IC50 on JH2 domain of human Tyk2 (setting [3]) and at Tyk2 was not above 10 nM in each case.

`CC(=O)Nc1cc(Nc2cc(OC3CC3)nc(C(C)(F)F)n2)c(Oc2cnn(C)c2)cn1` [Example 301, N-(4-((6-cyclopropoxy-2-(1,1-difluoroethyl)pyrimidin-4-yl)amino)-5-((1-methyl-1H-pyrazol-4-yl)oxy)pyridin-2-yl)acetamide]: the IC50 on JH2 domain of human Tyk2 (setting [2]) is 10 to 100 nM; on Tyk2 (MSD), 100 to 1000 nM.

Take `COc1cccc(-c2cnc(NC(C)=O)cc2Nc2cc(C)nc(C(C)(F)F)n2)n1` [Example 635, N-(4′-((2-(1,1-difluoroethyl)-6-methylpyrimidin-4-yl)amino)-6-methoxy-[2,3′-bipyridin]-6′-yl)acetamide]: the IC50 at JH2 domain of human Tyk2 (setting [1]) and on Tyk2 (MSD) was not above 10 nM throughout.

`COc1cnn(-c2cnc(NC(C)=O)cc2Nc2cc(C)nc(C(C)(F)F)n2)c1` [Example 731, N-(4-((2-(1,1-difluoroethyl)-6-methylpyrimidin-4-yl)amino)-5-(4-methoxy-1H-pyrazol-1-yl)pyridin-2-yl)acetamide]: the IC50 on JH2 domain of human Tyk2 (setting [1]) is not above 10 nM; against Tyk2 (MSD), 10 to 100 nM.

As to `CC(=O)Nc1cc(Nc2cc(C)nc(C(C)(F)F)n2)c(OCC2CC23CCOC3)cn1` (stereo not drawn) [Example 432, N-(5-((5-oxaspiro[2.4]heptan-1-yl)methoxy)-4-((2-(1,1-difluoroethyl)-6-methylpyrimidin-4-yl)amino)pyridin-2-yl)acetamide], the IC50 at JH2 domain of human Tyk2 (setting [1]) was not above 10 nM; against Tyk2 (MSD) it was 10 to 100 nM.

As for `CC(=O)Nc1cc(Nc2cc(C)nc(C(C)(F)F)n2)c(OCc2ncc(C)o2)cn1` [Example 341, N-(4-((2-(1,1-difluoroethyl)-6-methylpyrimidin-4-yl)amino)-5-((5-methyloxazol-2-yl)methoxy)pyridin-2-yl)acetamide], the IC50 was not above 10 nM on JH2 domain of human Tyk2 (setting [2]) and 10 to 100 nM against Tyk2 (MSD).

In the case of `CC(=O)Nc1cc(Nc2cc(C)nc(C(C)(F)F)n2)c(OCCc2ccccn2)cn1` [Example 476, N-(4-((2-(1,1-difluoroethyl)-6-methylpyrimidin-4-yl)amino)-5-(2-(pyridin-2-yl)ethoxy)pyridin-2-yl)acetamide], the values for the IC50 on JH2 domain of human Tyk2 (setting [1]) and at Tyk2 (MSD) were not above 10 nM and 10 to 100 nM, respectively.

`COCCOc1ccc(-c2cnc(NC(C)=O)cc2Nc2ccnc(C(C)(F)F)n2)nc1` [Example 523, N-(4′-((2-(1,1-difluoroethyl)pyrimidin-4-yl)amino)-5-(2-methoxyethoxy)-[2,3′-bipyridin]-6′-yl)acetamide]: the IC50 on JH2 domain of human Tyk2 (setting [1]) and against Tyk2 (MSD) was not above 10 nM throughout.

As to `CCc1cnc(COc2cnc(NC(C)=O)cc2Nc2cc(C)nc(C(C)(F)F)n2)o1` [Example 327, N-(4-((2-(1,1-difluoroethyl)-6-methylpyrimidin-4-yl)amino)-5-((5-ethyloxazol-2-yl)methoxy)pyridin-2-yl)acetamide], the IC50 is not above 10 nM at JH2 domain of human Tyk2 (setting [2]) and 10 to 100 nM against Tyk2 (MSD).

Take `COCCc1cnn(-c2cnc(NC(C)=O)cc2Nc2cc(C)nc(C(C)(F)F)n2)c1` [Example 764, N-(4-((2-(1,1-difluoroethyl)-6-methylpyrimidin-4-yl)amino)-5-(4-(2-methoxyethyl)-1H-pyrazol-1-yl)pyridin-2-yl)acetamide]: the IC50 at JH2 domain of human Tyk2 (setting [3]) is not above 10 nM; against Tyk2, 10 to 100 nM.

For the molecule `CC(=O)Nc1cc(Nc2cc(C)nc(C(C)(F)F)n2)c(OCC2CN(C)C2)cn1` [Example 506, N-(4-((2-(1,1-difluoroethyl)-6-methylpyrimidin-4-yl)amino)-5-((1-methylazetidin-3-yl)methoxy)pyridin-2-yl)acetamide], the IC50 at JH2 domain of human Tyk2 (setting [1]) was not above 10 nM; on Tyk2 (MSD) it was 100 to 1000 nM.

Consider `CC(=O)Nc1cc(Nc2ccnc(C(C)(F)F)n2)c(-c2coc(C)n2)cn1` [Example 581, N-(4-((2-(1,1-difluoroethyl)pyrimidin-4-yl)amino)-5-(2-methyloxazol-4-yl)pyridin-2-yl)acetamide], for which the IC50 at JH2 domain of human Tyk2 (setting [1]) was not above 10 nM; against Tyk2 (MSD), 10 to 100 nM.
